Data reported in the supplement of paper PMC7695840.
Values joined by “and” are separate entries in the source; they are usually repeats but may differ in a detail not shown here. Equal entries are not always repeated. Structures can show the parent of a compound that is named as a salt.

What was measured:
[1] = system: Staphylococcus aureus MW2 delta-mecA (mecA-); experiment: IC50 (growth, competition assay); details: cefoxitin: subinhibitory
Outline: (§1)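 Per plate, DsRed (540/590) and GFP (485/520) readings were normalized between the medians of the single-strain controls, after which No Treatment was fixed at 0.5. These readings came from a 1:1 mix of pre-induced fluorescent S. aureus MW2 strains with and without the resistance gene, grown for 20 h at 37 °C and 90% humidity, unshaken, in LB with a daily-set subinhibitory drug dose in 1536-well plates. Per-strain IC50 meant the dose halving the No Treatment signal, or the maximal signal.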

[2] = system: Staphylococcus aureus MW2 (mecA+); experiment: IC50 (growth, competition assay); details: cefoxitin: subinhibitory
Outline: as §1

C[C@@H](O)[C@H]1C(=O)N2C(C(=O)O)=C(S[C@@H]3CN[C@H](CNS(N)(=O)=O)C3)[C@H](C)[C@H]12 [Doripenem Hydrate]
IC50 ([1]; fluorescent label: DsRed): 137 µM
IC50 ([1]; fluorescent label: GFP): 130 µM
IC50 ([2]; fluorescent label: DsRed): > 150 µM
IC50 ([2]; fluorescent label: GFP): > 150 µM

CO[C@H]1C[C@H](O[C@H]2[C@H](C)[C@@H](O[C@@H]3O[C@H](C)C[C@H](N(C)C)[C@H]3OC(C)=O)[C@@H](C)C[C@@]3(CO3)C(=O)[C@H](C)[C@@H](OC(C)=O)[C@@H](C)[C@@H](C)OC(=O)[C@@H]2C)O[C@@H](C)[C@@H]1OC(C)=O [EVRAMYCIN]
IC50 ([1]; fluorescent label: DsRed): < 9.85 µM
IC50 ([1]; fluorescent label: GFP): < 9.85 µM
IC50 ([2]; fluorescent label: DsRed): 33.7 µM
IC50 ([2]; fluorescent label: GFP): 27.8 µM

CC1CCc2c(N3CCC(O)CC3)c(F)cc3c(=O)c(C(=O)O)cn1c23 (configuration not stated) [ACUATIM]
IC50 ([1]; fluorescent label: DsRed): < 9.85 µM
IC50 ([1]; fluorescent label: GFP): < 9.85 µM
IC50 ([2]; fluorescent label: DsRed): < 9.85 µM
IC50 ([2]; fluorescent label: GFP): < 9.85 µM

Cc1onc(-c2c(Cl)cccc2Cl)c1C(=O)N[C@@H]1C(=O)N2[C@@H]1SC(C)(C)[C@@H]2C(=O)O [Dicloxacillin Sodium]
IC50 ([1]; fluorescent label: DsRed): < 9.85 µM
IC50 ([1]; fluorescent label: GFP): < 9.85 µM
IC50 ([2]; fluorescent label: DsRed): < 9.85 µM
IC50 ([2]; fluorescent label: GFP): < 9.85 µM

O=C(C=Cc1ccc(O)cc1)c1ccccc1O [2',4-DIHYDROXYCHALCONE]
IC50 ([1]; fluorescent label: DsRed): 26.7 µM
IC50 ([1]; fluorescent label: GFP): 23.8 µM
IC50 ([2]; fluorescent label: DsRed): 40.6 µM
IC50 ([2]; fluorescent label: GFP): 58 µM

O=C(O[C@@H]1Cc2c(O)cc(O)cc2O[C@@H]1c1cc(O)c(O)c(O)c1)c1cc(O)c(O)c(O)c1 [(-)-Epigallocatechin gallate]
IC50 ([1]; fluorescent label: DsRed): 4.65 µM and < 9.85 µM
IC50 ([1]; fluorescent label: GFP): 3.45 µM and < 9.85 µM
IC50 ([2]; fluorescent label: DsRed): 27.4 µM and 17.3 µM
IC50 ([2]; fluorescent label: GFP): 29.7 µM and 46.5 µM

NC(=O)N/N=C/c1ccc([N+](=O)[O-])o1 [ACTIN-N]
IC50 ([1]; fluorescent label: DsRed): 10.5 µM
IC50 ([1]; fluorescent label: GFP): < 9.85 µM
IC50 ([2]; fluorescent label: DsRed): 16.2 µM
IC50 ([2]; fluorescent label: GFP): 15 µM

CC(=O)NC[C@H]1CN(c2ccc(N3CCOCC3)c(F)c2)C(=O)O1 [ZYVOX]
IC50 ([1]; fluorescent label: DsRed): < 9.85 µM
IC50 ([1]; fluorescent label: GFP): < 9.85 µM
IC50 ([2]; fluorescent label: DsRed): < 9.85 µM
IC50 ([2]; fluorescent label: GFP): < 9.85 µM

CN(C)[C@@H]1C(=O)C(C(N)=O)=C(O)[C@@]2(O)C(=O)C3=C(O)c4c(O)ccc(Cl)c4[C@@H](O)[C@H]3C[C@@H]12 [Demeclocycline hydrochloride]
IC50 ([1]; fluorescent label: DsRed): < 9.85 µM
IC50 ([1]; fluorescent label: GFP): < 9.85 µM
IC50 ([2]; fluorescent label: DsRed): < 9.85 µM
IC50 ([2]; fluorescent label: GFP): < 9.85 µM

COc1ccc2c(c1)OC[C@@H](Cc1ccc(OC)c(OC)c1)[C@H]2O [TETRAHYDROSAPPANONE A TRIMETHYL ETHER]
IC50 ([1]; fluorescent label: DsRed): > 150 µM
IC50 ([1]; fluorescent label: GFP): > 150 µM
IC50 ([2]; fluorescent label: DsRed): > 150 µM
IC50 ([2]; fluorescent label: GFP): > 150 µM

CC1OC(n2cc(F)c(=O)[nH]c2=O)C(O)C1O (configuration not stated) [5-fluoro-5'-deoxyuridine]
IC50 ([1]; fluorescent label: DsRed): < 9.85 µM
IC50 ([1]; fluorescent label: GFP): < 9.85 µM
IC50 ([2]; fluorescent label: DsRed): < 9.85 µM
IC50 ([2]; fluorescent label: GFP): < 9.85 µM

Cc1ccc(S(=O)(=O)c2ccc([N+](=O)[O-])o2)cc1
IC50 ([1]; fluorescent label: DsRed): < 9.85 µM
IC50 ([1]; fluorescent label: GFP): < 9.85 µM
IC50 ([2]; fluorescent label: DsRed): < 9.85 µM
IC50 ([2]; fluorescent label: GFP): < 9.85 µM

CCc1cc(-c2n[nH]c(C)c2-c2ccc3c(c2)OCCO3)c(O)cc1O
IC50 ([1]; fluorescent label: DsRed): 15.4 µM
IC50 ([1]; fluorescent label: GFP): < 9.85 µM
IC50 ([2]; fluorescent label: DsRed): 82.7 µM
IC50 ([2]; fluorescent label: GFP): 102 µM

CC[C@H]1OC(=O)[C@H](C)[C@@H](O[C@H]2C[C@@](C)(OC)[C@@H](O)[C@H](C)O2)[C@H](C)[C@@H](O[C@@H]2O[C@H](C)C[C@H](N(C)C)[C@H]2O)[C@](C)(OC)C[C@@H](C)C(=O)[C@H](C)[C@@H](O)[C@]1(C)O [BIAXIN]
IC50 ([1]; fluorescent label: DsRed): < 9.85 µM
IC50 ([1]; fluorescent label: GFP): < 9.85 µM
IC50 ([2]; fluorescent label: DsRed): < 9.85 µM
IC50 ([2]; fluorescent label: GFP): < 9.85 µM

Cc1cc(F)c(Nc2ncnc3cc(OCc4ccccc4)ccc23)cc1O
IC50 ([1]; fluorescent label: DsRed): 139 µM
IC50 ([1]; fluorescent label: GFP): > 150 µM
IC50 ([2]; fluorescent label: DsRed): > 150 µM
IC50 ([2]; fluorescent label: GFP): 138 µM

COc1cccc(C2(O)CCCCC2CN(C)C)c1 (configuration not stated) [ULTRAM]
IC50 ([1]; fluorescent label: DsRed): 101 µM
IC50 ([1]; fluorescent label: GFP): 60.8 µM
IC50 ([2]; fluorescent label: DsRed): 131 µM
IC50 ([2]; fluorescent label: GFP): 135 µM

CCN1CCN(c2cc3c(cc2F)c(=O)c(C(=O)O)cn3C2CC2)CC1 [BAYTRIL]
IC50 ([1]; fluorescent label: DsRed): < 9.85 µM
IC50 ([1]; fluorescent label: GFP): < 9.85 µM
IC50 ([2]; fluorescent label: DsRed): < 9.85 µM
IC50 ([2]; fluorescent label: GFP): < 9.85 µM

O=C(O[C@@H]1Cc2c(O)cc(O)cc2O[C@@H]1c1cc(O)c(=O)c2c(O)c(O)cc([C@H]3Oc4cc(O)cc(O)c4C[C@H]3O)c2c1)c1cc(O)c(O)c(O)c1 [THEAFLAVIN MONOGALLATES]
IC50 ([1]; fluorescent label: DsRed): 14.8 µM
IC50 ([1]; fluorescent label: GFP): 20.5 µM
IC50 ([2]; fluorescent label: DsRed): 111 µM
IC50 ([2]; fluorescent label: GFP): 93.4 µM

Cc1onc(-c2ccccc2Cl)c1C(=O)N[C@@H]1C(=O)N2[C@@H]1SC(C)(C)[C@@H]2C(=O)O [TEGOPEN]
IC50 ([1]; fluorescent label: DsRed): < 9.85 µM
IC50 ([1]; fluorescent label: GFP): < 9.85 µM
IC50 ([2]; fluorescent label: DsRed): < 9.85 µM
IC50 ([2]; fluorescent label: GFP): < 9.85 µM

CC[C@@H]1C(=O)N(C)c2cnc(Nc3ccc(C(=O)NC4CCN(C)CC4)cc3OC)nc2N1C1CCCC1 [BI 2536]
IC50 ([1]; fluorescent label: DsRed): 21.6 µM
IC50 ([1]; fluorescent label: GFP): 30.1 µM
IC50 ([2]; fluorescent label: DsRed): 106 µM
IC50 ([2]; fluorescent label: GFP): 112 µM

CC(=O)OCC1=C(C(=O)O)N2C(=O)[C@@H](NC(=O)Cc3cccs3)[C@H]2SC1 [Cephalothin sodium]
IC50 ([1]; fluorescent label: DsRed): < 9.85 µM
IC50 ([1]; fluorescent label: GFP): < 9.85 µM
IC50 ([2]; fluorescent label: DsRed): < 9.85 µM
IC50 ([2]; fluorescent label: GFP): < 9.85 µM

CC[C@@H](C(=O)O)[C@@H]1O[C@@H]([C@@H](C)[C@H](O)[C@H](C)C(=O)[C@H](CC)[C@H]2O[C@]3(C=C[C@@H](O)[C@]4(CC[C@@](C)([C@H]5CC[C@](O)(CC)[C@H](C)O5)O4)O3)[C@H](C)C[C@@H]2C)[C@@H](C)C[C@@H]1C [NARASIN]
IC50 ([1]; fluorescent label: DsRed): < 9.85 µM
IC50 ([1]; fluorescent label: GFP): < 9.85 µM
IC50 ([2]; fluorescent label: DsRed): < 9.85 µM
IC50 ([2]; fluorescent label: GFP): < 9.85 µM

C[C@H]1c2cccc(O)c2C(=O)C2=C(O)[C@]3(O)C(=O)C(C(N)=O)=C(O)[C@@H](N(C)C)[C@@H]3[C@@H](O)[C@@H]21 [PERIOSTAT]
IC50 ([1]; fluorescent label: DsRed): < 9.85 µM
IC50 ([1]; fluorescent label: GFP): < 9.85 µM
IC50 ([2]; fluorescent label: DsRed): < 9.85 µM
IC50 ([2]; fluorescent label: GFP): < 9.85 µM

COc1cccc(OC)c1C(=O)N[C@@H]1C(=O)N2[C@@H]1SC(C)(C)[C@@H]2C(=O)O [STAPHCILLIN]
IC50 ([1]; fluorescent label: DsRed): < 9.85 µM
IC50 ([1]; fluorescent label: GFP): < 9.85 µM
IC50 ([2]; fluorescent label: DsRed): < 9.85 µM
IC50 ([2]; fluorescent label: GFP): < 9.85 µM

C=C[C@]1(C)C[C@@H](OC(=O)CS[C@@H]2C[C@H]3CC[C@@H](C2)N3C)[C@]2(C)[C@H](C)CC[C@]3(CCC(=O)[C@H]32)[C@@H](C)[C@@H]1O [Retapamulin]
IC50 ([1]; fluorescent label: DsRed): < 9.85 µM
IC50 ([1]; fluorescent label: GFP): < 9.85 µM
IC50 ([2]; fluorescent label: DsRed): < 9.85 µM
IC50 ([2]; fluorescent label: GFP): < 9.85 µM

CN(Cc1cnc2nc(N)nc(N)c2n1)c1ccc(C(=O)N[C@@H](CCC(=O)O)C(=O)O)cc1 [Abitrexate (Methotrexate)]
IC50 ([1]; fluorescent label: DsRed): 36.3 µM
IC50 ([1]; fluorescent label: GFP): 31.5 µM
IC50 ([2]; fluorescent label: DsRed): 115 µM
IC50 ([2]; fluorescent label: GFP): 103 µM

CC(=O)O[C@H]1C[C@@]2(C)[C@@H](C[C@@H](O)[C@H]3[C@@]4(C)CC[C@@H](O)[C@@H](C)[C@@H]4CC[C@@]32C)/C1=C(\CCC=C(C)C)C(=O)O [Fusidic acid sodium]
IC50 ([1]; fluorescent label: DsRed): < 9.85 µM
IC50 ([1]; fluorescent label: GFP): < 9.85 µM
IC50 ([2]; fluorescent label: DsRed): < 9.85 µM
IC50 ([2]; fluorescent label: GFP): < 9.85 µM

C[C@H]1O[C@@H](n2cc(F)c(=O)[nH]c2=O)[C@H](O)[C@@H]1O [FURTULON]
IC50 ([1]; fluorescent label: DsRed): < 9.85 µM
IC50 ([1]; fluorescent label: GFP): < 9.85 µM
IC50 ([2]; fluorescent label: DsRed): 10.3 µM
IC50 ([2]; fluorescent label: GFP): < 9.85 µM
